Source: US9604969B2, “Pyrimidin-4-yl)oxy)-1h-indole-1-carboxamide derivatives and use thereof” (NOVARTIS AG, priority 2013, dated 2017)
Where a name gives a salt, the structure may show the parent alone.

What was measured:
[1] = format: physicochemical
Text: Crystalline form B of the HCl salt of N-(1-methyl-5-(trifluoromethyl)-1H-pyrazol-3-yl)-5-((6-((methylamino)methyl)pyrimidin-4-yl)oxy)-1H-indole-1-carboxamide was obtained using the same procedure as in Example 5 above.

rat hepatocytes = experiment: Hepatocyte viability during incubation (Guava ViaCount); format: cell-based; conditions: 10 μmol/L, percent viable cells relative to total cells, controls without compound 4-21%
Protocol: (§1) After thawing the cryopreserved hepatocytes, the viable cells were enriched by centrifugation in HepatoZYME cell culture medium (Gibco Invitrogen). For this purpose, the cells were added to 45 mL of a 37° C. warm HepatoZYME, and centrifuged at room temperature, at 50 g for 5 min. The supernatant containing dead cells was discarded and the cells in the pellet were re-suspended in HepatoZYME.
(§2) The viability of the re-suspended hepatocytes was determined by a Guava EasyCyte™ Mini system using the ViaCount® assay as described by the supplier (Guava Technologies, Hayward, Calif., USA). After cell counting, the cell concentration was adjusted to approx. 1·10^6 viable cells/mL by adding HepatoZYME. Subsequently, the incubations were started by adding [^14C]N-(1-methyl-5-(trifluoromethyl)-1H-pyrazol-3-yl)-5-(6-((methylamino)methyl)pyrimidin-4-yloxy)-1H-indole-1-carboxamide and non-labeled N-(1-methyl-5-(trifluoromethyl)-1H-pyrazol-3-yl)-5-(6-((methylamino)methyl)pyrimidin-4-yloxy)-1H-indole-1-carboxamide as a solution in DMSO. The final concentration of DMSO in the incubations was 0.1% (v/v).
(§3) To check the chemical stability of [^14C]N-(1-methyl-5-(trifluoromethyl)-1H-pyrazol-3-yl)-5-(6-((methylamino)methyl)pyrimidin-4-yloxy)-1H-indole-1-carboxamide under the incubation conditions, the compound was incubated at a concentration of 10 μmol/L in HepatoZYME without hepatocytes. A second series of control incubations was performed with hepatocytes of all species in the absence of the test compound to investigate the effect of the latter on the viability. These experiments were performed in a 12×6 mL MultiWell™ plate (Art. 393503, Beckton Dickinson).
(§4) The incubations were performed at 37° C. under a humidified atmosphere of 95% relative humidity and 5% CO2 in a Heraeus incubator/cytoperm (Kendro Laboratory Products AG, Zürich, Switzerland). During the incubations, the plates and flasks were shaken at 300 strokes per minute. The viability of the hepatocytes was determined after 6 h (end of incubation).

human hepatocytes = experiment: as above; format: cell-based; conditions: 10 μmol/L, percent viable cells relative to total cells, controls without compound 4-21%
Protocol: as §1, §2, §3, §4

rabbit hepatocytes = experiment: as above; format: cell-based; conditions: 10 μmol/L, percent viable cells relative to total cells, controls without compound 4-21%
Protocol: as §1, §2, §3, §4

monkey hepatocytes = experiment: as above; format: cell-based; conditions: 10 μmol/L, percent viable cells relative to total cells, controls without compound 4-21%
Protocol: as §1, §2, §3, §4

[2] = Control incubations for chemical stability in incubation media; format: physicochemical; conditions: 10 μmol/L, 37° C., incubation media in the absence of hepatocytes or liver microsomes
Protocol: as §3
Microsomal incubations for metabolite profiles were performed at 10 μmol/L of [^14C]N-(1-methyl-5-(trifluoromethyl)-1H-pyrazol-3-yl)-5-(6-((methylamino)methyl)pyrimidin-4-yloxy)-1H-indole-1-carboxamide (approx. 50% radiolabeled) with one time point investigated (60 min). Incubations were performed at 37° C. in 0.1 mol/L sodium phosphate buffer pH 7.4. The final concentrations in the incubation cocktail were: 4 mmol/L UDPGA (Sigma-Aldrich), 1 mmol/L β-NADPH (Sigma-Aldrich), 5 mmol/L MgCl2, and 60 μg alamethicin (Sigma-Aldrich) per mg microsomal protein. The system was left to incubate for 10 min before adding the test compound to allow the pore formation with the alamethicin. […]

Row | SMILES | Stability of crystalline form [1] | Viability at 6 h (rat hepatocytes) [%] | Viability at 6 h (human hepatocytes) [%] | Viability at 6 h (rabbit hepatocytes) [%] | Viability at 6 h (monkey hepatocytes) [%] | Chemical stability under the incubation conditions [2]
1 | CNCc1cc(Oc2ccc3c(ccn3C(=O)Nc3cc(C(F)(F)F)n(C)n3)c2)ncn1 [Form B, N-(1-methyl-5-(trifluoromethyl)-1H-pyrazol-3-yl)-5-((6-((methylamino)methyl)pyrimidin-4-yl)oxy)-1H-indole-1-carboxamide (HCl Salt) Form B] | transient form that converts back to Form A |  |  |  |  | 
2 | CNCc1cc(Oc2ccc3c(ccn3C(=O)Nc3cc(C(F)(F)F)n(C)n3)c2)ncn1 [N-(1-methyl-5-(trifluoromethyl)-1H-pyrazol-3-yl)-5-((6-((methylamino)methyl)pyrimidin-4-yl)oxy)-1H-indole-1-carboxamide] |  | 22 | 25 | 8 | 42 | confirmed the stability of the compound
